From patent US20250026752A1, “POSITIVE ALLOSTERIC MODULATORS OF THE MUSCARINIC ACETYLCHOLINE RECEPTOR M4” (Vanderbilt University, priority 2021, published 2025) come the findings set out here.

Each structure is given as a SMILES string.

This assay has as its target T1, human mAChR M4 (Homo sapiens, UniProt P08173).
T1 construct: expressed in transfected cells; host or cells: CHO-K1 (ATCC), stably expressing hM4 and Gqi5
T1 sequence (P08173 1-479): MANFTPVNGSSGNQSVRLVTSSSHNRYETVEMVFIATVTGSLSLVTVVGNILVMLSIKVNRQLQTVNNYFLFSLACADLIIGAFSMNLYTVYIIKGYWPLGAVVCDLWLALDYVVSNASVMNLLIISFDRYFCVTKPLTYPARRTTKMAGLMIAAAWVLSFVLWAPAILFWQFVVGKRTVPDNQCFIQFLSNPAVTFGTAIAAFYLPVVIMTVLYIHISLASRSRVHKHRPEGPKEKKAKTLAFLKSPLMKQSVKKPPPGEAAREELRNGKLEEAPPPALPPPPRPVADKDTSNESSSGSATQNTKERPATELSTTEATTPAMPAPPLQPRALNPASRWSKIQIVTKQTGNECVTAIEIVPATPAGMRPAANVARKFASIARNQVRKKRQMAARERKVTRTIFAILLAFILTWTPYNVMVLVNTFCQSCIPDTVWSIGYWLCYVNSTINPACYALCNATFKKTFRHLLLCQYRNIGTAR
In words: mAChR M4 cell-based functional assay: calcium flux (Fluo-4, FDSS), positive allosteric modulator activity on the EC20 acetylcholine response, hM4-Gqi5 CHO-K1 cells. The conditions noted are these: for Emax at 30 µM: CHO-K1, human M4, % ACh maximum at 30 μM; for EC50: human M4, PAM activity on EC20 acetylcholine response, calcium flux, read-out: Human M4 EC50. The essentials: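 Potentiation was taken as the concentration-dependent rise in the EC20 acetylcholine calcium response, fitted by a four-parameter logistic with EC20 as baseline. Fluo-4-loaded hM4-Gqi5 CHO-K1 cells received 11-point, threefold-diluted compound before acetylcholine at 144 s; FDSS read at 1 Hz.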

Take `Clc1ccc2nc(C3CC3)nc(N3CCc4ncc(N5CCCn6nccc65)cc4C3)c2c1` [Compound 192, 6-chloro-2-cyclopropyl-4-[3-(6,7-dihydro-5H-pyrazolo[1,5-a]pyrimidin-4-yl)-7,8-dihydro-5H-1,6-naphthyridin-6-yl]quinazoline]: the Emax at 30 µM was determined as 100% and the 50% effective concentration (EC50) was 410 nM.
Regarding `Cc1ccc2nc(C)nc(N3CCc4ncc(N5CCCn6nccc65)cc4C3)c2c1` [Compound 100, 4-[3-(6,7-dihydro-5H-pyrazolo[1,5-a]pyrimidin-4-yl)-7,8-dihydro-5H-1,6-naphthyridin-6-yl]-2,6-dimethyl-quinazoline], the Emax at 30 µM was found to be 101% and the EC50 stood at 60 nM.
Taken in the same sequence, the figures for `Cc1ccc(-c2cnc3c(c2)CN(c2ncnc4ccc(F)cc24)CC3)cn1` [Compound 38, 6-fluoro-4-[3-(6-methyl-3-pyridyl)-7,8-dihydro-5H-1,6-naphthyridin-6-yl]quinazoline] were 93% and 170 nM.
Turning to `Fc1ccc2nc(N3CCOCC3)nc(N3CCc4ncc(C(F)(F)F)cc4C3)c2c1` [Compound 183, 4-[6-fluoro-4-[3-(trifluoromethyl)-7,8-dihydro-5H-1,6-naphthyridin-6-yl]quinazolin-2-yl]morpholine], the Emax at 30 µM was determined as 71% and the EC50 was 260 nM.
With `Cc1nc(N2CCc3ncc(-c4cc(F)ccc4C)cc3C2)c2cc(Cl)ccc2n1` [Compound 303, 6-chloro-4-(3-(5-fluoro-2-methylphenyl)-7,8-dihydro-1,6-naphthyridin-6(5H)-yl)-2-methylquinazoline], the Emax at 30 µM came to 91% and the 50% effective concentration (EC50) is 9200 nM.
On to `Cc1nc(N2CCc3ncc(-c4c(C)noc4C)cc3C2)c2cc(Cl)ccc2n1` [Compound 47, 4-[6-(6-chloro-2-methyl-quinazolin-4-yl)-7,8-dihydro-5H-1,6-naphthyridin-3-yl]-3,5-dimethyl-isoxazole], for which the maximal response (Emax) at 30 µM stood at 99% and the EC50 is 140 nM.
Consider `Cc1ccc2nc(Cl)nc(N3CCc4ncc(C(F)(F)F)cc4C3)c2c1` [Compound 119, 2-chloro-6-methyl-4-[3-(trifluoromethyl)-7,8-dihydro-5H-1,6-naphthyridin-6-yl]quinazoline], for which the Emax at 30 µM is 95% and the EC50 was found to be 110 nM.
The matching figures for `COc1cc2c(N3CCc4ncc(C(F)(F)F)cc4C3)nc(C)nc2cc1F` [Compound 169, 7-fluoro-6-methoxy-2-methyl-4-[3-(trifluoromethyl)-7,8-dihydro-5H-1,6-naphthyridin-6-yl]quinazoline]: 74% and 260 nM.
Taken in the same sequence, the figures for `c1cnc2nc(N3CCCC3)nc(N3CCc4ncc(N5CCCn6nccc65)cc4C3)c2c1` [Compound 246, 4-(3-(6,7-dihydropyrazolo[1,5-a]pyrimidin-4(5H)-yl)-7,8-dihydro-1,6-naphthyridin-6(5H)-yl)-2-(pyrrolidin-1-yl)pyrido[2,3-d]pyrimidine] were 63% and 50 nM.
`Cc1nc(N2CCc3ncc(-c4c(C)cnn4C)cc3C2)c2cc(Cl)ccc2n1` [Compound 256, 6-chloro-4-(3-(1,4-dimethyl-1H-pyrazol-5-yl)-7,8-dihydro-1,6-naphthyridin-6(5H)-yl)-2-methylquinazoline]: the maximum response (Emax) at 30 µM came out at 94% and the EC50 came out at 140 nM.
The matching figures for `Cc1nc2c(cc1N1CCOC(C)(C)C1)CN(c1ncnc3ccc(F)cc13)CC2` [Compound 219, 4-(6-(6-fluoroquinazolin-4-yl)-2-methyl-5,6,7,8-tetrahydro-1,6-naphthyridin-3-yl)-2,2-dimethylmorpholine]: 60% and 1370 nM.
Consider `Cc1nn(C)cc1-c1cnc2c(c1)CN(c1nc(C3CC3)nc3ccc(F)cc13)CC2` [Compound 193, 2-cyclopropyl-4-[3-(1,3-dimethylpyrazol-4-yl)-7,8-dihydro-5H-1,6-naphthyridin-6-yl]-6-fluoro-quinazoline], for which the Emax at 30 µM is 85% and the EC50 worked out at 950 nM.
For the molecule `COc1ccc2ncnc(N3CCc4ncc(Oc5ccc(C)cc5F)cc4C3)c2c1` [Compound 146, 4-[3-(2-fluoro-4-methyl-phenoxy)-7,8-dihydro-5H-1,6-naphthyridin-6-yl]-6-methoxy-quinazoline], the Emax at 30 µM was determined as 40% and the EC50 is greater than 10000 nM.
On to `Cc1ccc(-c2cnc3c(c2)CN(c2nc(C(F)(F)F)nc4ccc(F)cc24)CC3)cn1` [Compound 67, 6-fluoro-4-[3-(6-methyl-3-pyridyl)-7,8-dihydro-5H-1,6-naphthyridin-6-yl]-2-(trifluoromethyl)quinazoline], for which the Emax at 30 µM worked out at 55% and the concentration for a half-maximal effect (EC50) stood at 660 nM.
Regarding `C[C@H]1CN(c2ncnc3cc(F)c(F)cc23)Cc2cc(N3CCOCC3)cnc21` [Compound 261, (S)-4-(6-(6,7-difluoroquinazolin-4-yl)-8-methyl-5,6,7,8-tetrahydro-1,6-naphthyridin-3-yl)morpholine], the Emax at 30 µM came to 79% and the EC50 amounted to 440 nM.
Take `Fc1ccc2ncnc(N3CCc4ncc(N5CCC(C(F)(F)F)n6nccc65)cc4C3)c2c1` (centres unmarked) [Compound 69, 6-fluoro-4-[3-[7-(trifluoromethyl)-6,7-dihydro-5H-pyrazolo[1,5-a]pyrimidin-4-yl]-7,8-dihydro-5H-1,6-naphthyridin-6-yl]quinazoline]: the Emax at 30 µM turned out to be 71% and the EC50 turned out to be 120 nM.
Consider `Fc1cc2ncnc(N3CCc4ncc(N5CCOc6ncccc65)cc4C3)c2cc1F` [Compound 98, 1-[6-(6,7-difluoroquinazolin-4-yl)-7,8-dihydro-5H-1,6-naphthyridin-3-yl]-2,3-dihydropyrido[2,3-b][1,4]oxazine], for which the Emax at 30 µM is 97% and the EC50 was 30 nM.
Regarding `Cc1nc(N2CCc3ncc(N4CCCn5nccc54)cc3C2)c2cc(Cl)ccc2n1` [Compound 84], the Emax at 30 µM turned out to be 114% and the concentration for a half-maximal effect (EC50) was 230 nM.
Turning to `C[C@H]1CCN(c2cnc3c(c2)CN(c2ncnc4ccc(F)cc24)CC3)c2ccnn21` [Compound 289, (S)-6-fluoro-4-(3-(7-methyl-6,7-dihydropyrazolo[1,5-a]pyrimidin-4(5H)-yl)-7,8-dihydro-1,6-naphthyridin-6(5H)-yl)quinazoline], the maximal effect (Emax) at 30 µM stood at 72% and the EC50 was 490 nM.
The matching figures for `Cc1ccc2ncnc(N3CCc4ncc(-c5cnn(C6CC6)c5)cc4C3)c2c1` [Compound 12, 4-[3-(1-cyclopropylpyrazol-4-yl)-7,8-dihydro-5H-1,6-naphthyridin-6-yl]-6-methyl-quinazoline]: 114% and 230 nM.
Regarding `Cc1nc(N2CCc3ncc(C(F)(F)F)cc3C2)c2ccc(Br)cc2n1` [Compound 128, 7-bromo-2-methyl-4-[3-(trifluoromethyl)-7,8-dihydro-5H-1,6-naphthyridin-6-yl]quinazoline], the maximal response (Emax) at 30 µM stood at 32% and the EC50 is 1740 nM.
Taken in the same sequence, the figures for `Cc1ccc2nc(N3CCCC3)nc(N3CCc4ncc(C(F)(F)F)cc4C3)c2c1` [Compound 206, 6-methyl-2-pyrrolidin-1-yl-4-[3-(trifluoromethyl)-7,8-dihydro-5H-1,6-naphthyridin-6-yl]quinazoline] were 74% and 720 nM.
As for `Cc1ccc2ncnc(N3CCc4ncc(Nc5ccnn5C)cc4C3)c2c1` [Compound 96, N-(2-methylpyrazol-3-yl)-6-(6-methylquinazolin-4-yl)-7,8-dihydro-5H-1,6-naphthyridin-3-amine], the Emax at 30 µM stood at 94% and the concentration giving a half-maximal response (EC50) turned out to be 80 nM.
For `COc1ccc2ncnc(N3CCc4ncc(-c5ccccc5C)cc4C3)c2c1` [Compound 296, 6-methoxy-4-(3-(o-tolyl)-7,8-dihydro-1,6-naphthyridin-6(5H)-yl)quinazoline], the Emax at 30 µM worked out at 102% and the EC50 was determined as 1370 nM.
For `Cc1ccc(-c2cnc3c(c2)CN(c2nc(C)nc4ccc(Cl)cc24)CC3)cn1` [Compound 51, 6-chloro-2-methyl-4-[3-(6-methyl-3-pyridyl)-7,8-dihydro-5H-1,6-naphthyridin-6-yl]quinazoline], the Emax at 30 µM was determined as 95% and the concentration giving a half-maximal response (EC50) was 290 nM.
Turning to `Cc1nc(N2CCc3ncc(-c4ccnn4C(C)C)cc3C2)c2cc(Cl)ccc2n1` [Compound 254, 6-chloro-4-(3-(1-isopropyl-1H-pyrazol-5-yl)-7,8-dihydro-1,6-naphthyridin-6(5H)-yl)-2-methylquinazoline], the maximum response (Emax) at 30 µM was 86% and the half-maximal effective concentration (EC50) was 360 nM.
Turning to `FC(F)(F)c1cnc2c(c1)CN(c1nc(Cl)nc3ncccc13)CC2` [Compound 121, 2-chloro-4-[3-(trifluoromethyl)-7,8-dihydro-5H-1,6-naphthyridin-6-yl]pyrido[2,3-d]pyrimidine], the Emax at 30 µM worked out at 69% and the 50% effective concentration (EC50) worked out at 360 nM.
Regarding `Cc1nc(N2CCc3ncc(-c4ccccc4C)cc3C2)c2cc(Cl)ccc2n1` [Compound 302, 6-chloro-2-methyl-4-(3-(o-tolyl)-7,8-dihydro-1,6-naphthyridin-6(5H)-yl)quinazoline], the Emax at 30 µM was determined as 94% and the EC50 was determined as 5370 nM.
